# US9375497B2, “[F-18]-labeled L-glutamic acid, [F-18]-labeled L-glutamine, derivatives thereof and use thereof and processes for their preparation” (BAYER SCHERING PHARMA AKTIENGESELLSCHAFT, priority 2006, dated 2016)
# Test system: murine B16F1 melanoma model in C57BI6 mice
# Assay: Tumor enrichment and tissue distribution, B16F1 melanoma model
# Conditions: for Tumor/tissue quotient, Blood / Tumor/tissue quotient, Brain / Tumor/tissue quotient, Fat / Tumor/tissue quotient, Heart / Tumor/tissue quotient, Intestine / Tumor/tissue quotient, Kidney / Tumor/tissue quotient, Liver / Tumor/tissue quotient, Lung / Tumor/tissue quotient, Muscle / Tumor/tissue quotient, Ovary / Tumor/tissue quotient, Skin / Tumor/tissue quotient, Spleen / Tumor/tissue quotient, Stomach / Tumor/tissue quotient, Uterus: single i.v.; for Tissue uptake, Blood / Tissue uptake, Brain / Tissue uptake, Fat / Tissue uptake, Heart / Tissue uptake, Intestine / Tissue uptake, Kidney / Tissue uptake, Liver / Tissue uptake, Lung / Tissue uptake, Muscle / Tissue uptake, Ovary / Tissue uptake, Skin / Tissue uptake, Spleen / Tissue uptake, Stomach / Tissue uptake, Tumor / Tissue uptake, Uterus: single i.v. 370 kBq; for tumor/blood quotient / tumor/blood quotient, factor higher than for [^14C]5-glutamic acid / tumor/liver quotient / tumor/liver quotient, factor higher than for [^14C]5-glutamic acid: B16F1 melanoma model
# Method: For the evaluation of the tumor enrichment and the tissue distribution in experimental animals, [^18F]-4-glutamic acid was tested in a murine F9 teratocarcinoma model in NMRI nude mice and a murine B16F1 melanoma model in C57BI6 mice.
# For this, 1×10^6 cells (F9) or 5×10^5 cells (B16F1) respectively were suspended in 100 μl of phosphate-buffered physiological saline solution and inoculated subcutaneously into the right, rear flank of the corresponding experimental animal species (NMRI for F9 and 057-BI6 for B16F1) (Berndorff et al. Clin. Cancer Res. 2005, 11, 2005). […] [^18F]-4-Glutamic acid (370 kBq, in 100 μl of physiological saline solution) was administered intravenously to the tail vein. After 15; 60 and 120 min in each case, the animals were killed, organ and tumor removed, weighed and measured for radioactive content.
smiles,measurement,setting,value
"NC(CC([18F])C(=O)O)C(=O)O (stereo not shown) [[^18F]4-glutamic acid, 4-[F-18]fluoroglutamic acid]","Tumor/tissue quotient, Blood",0.25 h (times as Table 3),1.21
same,"Tumor/tissue quotient, Brain",0.25 h (times as Table 3),4.89
same,"Tumor/tissue quotient, Fat",0.25 h (times as Table 3),3.95
same,"Tumor/tissue quotient, Heart",0.25 h (times as Table 3),1.06
same,"Tumor/tissue quotient, Intestine",0.25 h (times as Table 3),1.19
same,"Tumor/tissue quotient, Kidney",0.25 h (times as Table 3),0.31
same,"Tumor/tissue quotient, Liver",0.25 h (times as Table 3),0.93
same,"Tumor/tissue quotient, Lung",0.25 h (times as Table 3),0.32
same,"Tumor/tissue quotient, Muscle",0.25 h (times as Table 3),1.72
same,"Tumor/tissue quotient, Ovary",0.25 h (times as Table 3),1.03
same,"Tumor/tissue quotient, Skin",0.25 h (times as Table 3),1.49
same,"Tumor/tissue quotient, Spleen",0.25 h (times as Table 3),0.89
same,"Tumor/tissue quotient, Stomach",0.25 h (times as Table 3),1.05
same,"Tumor/tissue quotient, Uterus",0.25 h (times as Table 3),0.56
same,"Tissue uptake, Blood",0.25 h,2.93 % dose/g
same,"Tissue uptake, Brain",0.25 h,0.73 % dose/g
same,"Tissue uptake, Fat",0.25 h,0.92 % dose/g
same,"Tissue uptake, Heart",0.25 h,3.36 % dose/g
same,"Tissue uptake, Intestine",0.25 h,3.00 % dose/g
same,"Tissue uptake, Kidney",0.25 h,11.35 % dose/g
same,"Tissue uptake, Liver",0.25 h,3.81 % dose/g
same,"Tissue uptake, Lung",0.25 h,11.10 % dose/g
same,"Tissue uptake, Muscle",0.25 h,2.19 % dose/g
same,"Tissue uptake, Ovary",0.25 h,3.57 % dose/g
same,"Tissue uptake, Skin",0.25 h,2.43 % dose/g
same,"Tissue uptake, Spleen",0.25 h,4.07 % dose/g
same,"Tissue uptake, Stomach",0.25 h,3.41 % dose/g
same,"Tissue uptake, Tumor",0.25 h,3.55 % dose/g
same,"Tissue uptake, Uterus",0.25 h,7.17 % dose/g
same,"Tumor/tissue quotient, Blood",1.0 h (times as Table 3),5.25
same,"Tumor/tissue quotient, Brain",1.0 h (times as Table 3),4.7
same,"Tumor/tissue quotient, Fat",1.0 h (times as Table 3),14.16
same,"Tumor/tissue quotient, Heart",1.0 h (times as Table 3),3.54
same,"Tumor/tissue quotient, Intestine",1.0 h (times as Table 3),1.56
same,"Tumor/tissue quotient, Kidney",1.0 h (times as Table 3),1.25
same,"Tumor/tissue quotient, Liver",1.0 h (times as Table 3),3.63
same,"Tumor/tissue quotient, Lung",1.0 h (times as Table 3),1.51
same,"Tumor/tissue quotient, Muscle",1.0 h (times as Table 3),4.3
same,"Tumor/tissue quotient, Ovary",1.0 h (times as Table 3),4.38
same,"Tumor/tissue quotient, Skin",1.0 h (times as Table 3),5.43
same,"Tumor/tissue quotient, Spleen",1.0 h (times as Table 3),2.81
same,"Tumor/tissue quotient, Stomach",1.0 h (times as Table 3),4.02
same,"Tumor/tissue quotient, Uterus",1.0 h (times as Table 3),3.84
same,"Tissue uptake, Blood",1.0 h,0.48 % dose/g
same,"Tissue uptake, Brain",1.0 h,0.49 % dose/g
same,"Tissue uptake, Fat",1.0 h,0.18 % dose/g
same,"Tissue uptake, Heart",1.0 h,0.71 % dose/g
same,"Tissue uptake, Intestine",1.0 h,1.28 % dose/g
same,"Tissue uptake, Kidney",1.0 h,2.25 % dose/g
same,"Tissue uptake, Liver",1.0 h,0.64 % dose/g
same,"Tissue uptake, Lung",1.0 h,1.47 % dose/g
same,"Tissue uptake, Muscle",1.0 h,0.53 % dose/g
same,"Tissue uptake, Ovary",1.0 h,0.58 % dose/g
same,"Tissue uptake, Skin",1.0 h,0.48 % dose/g
same,"Tissue uptake, Spleen",1.0 h,0.81 % dose/g
same,"Tissue uptake, Stomach",1.0 h,0.59 % dose/g
same,"Tissue uptake, Tumor",1.0 h,2.14 % dose/g
same,"Tissue uptake, Uterus",1.0 h,0.69 % dose/g
same,"Tumor/tissue quotient, Blood",2.0 h (times as Table 3),7.93
same,"Tumor/tissue quotient, Brain",2.0 h (times as Table 3),3.55
same,"Tumor/tissue quotient, Fat",2.0 h (times as Table 3),8.85
same,"Tumor/tissue quotient, Heart",2.0 h (times as Table 3),5.06
same,"Tumor/tissue quotient, Intestine",2.0 h (times as Table 3),0.87
same,"Tumor/tissue quotient, Kidney",2.0 h (times as Table 3),2.22
same,"Tumor/tissue quotient, Liver",2.0 h (times as Table 3),4.42
same,"Tumor/tissue quotient, Lung",2.0 h (times as Table 3),2.34
same,"Tumor/tissue quotient, Muscle",2.0 h (times as Table 3),6.95
same,"Tumor/tissue quotient, Ovary",2.0 h (times as Table 3),3.02
same,"Tumor/tissue quotient, Skin",2.0 h (times as Table 3),5.94
same,"Tumor/tissue quotient, Spleen",2.0 h (times as Table 3),4.03
same,"Tumor/tissue quotient, Stomach",2.0 h (times as Table 3),4.24
same,"Tumor/tissue quotient, Uterus",2.0 h (times as Table 3),2.59
same,"Tissue uptake, Blood",2.0 h,0.16 % dose/g
same,"Tissue uptake, Brain",2.0 h,0.36 % dose/g
same,"Tissue uptake, Fat",2.0 h,0.16 % dose/g
same,"Tissue uptake, Heart",2.0 h,0.28 % dose/g
same,"Tissue uptake, Intestine",2.0 h,1.46 % dose/g
same,"Tissue uptake, Kidney",2.0 h,0.57 % dose/g
same,"Tissue uptake, Liver",2.0 h,0.29 % dose/g
same,"Tissue uptake, Lung",2.0 h,0.56 % dose/g
same,"Tissue uptake, Muscle",2.0 h,0.24 % dose/g
same,"Tissue uptake, Ovary",2.0 h,0.45 % dose/g
same,"Tissue uptake, Skin",2.0 h,0.22 % dose/g
same,"Tissue uptake, Spleen",2.0 h,0.31 % dose/g
same,"Tissue uptake, Stomach",2.0 h,0.30 % dose/g
same,"Tissue uptake, Tumor",2.0 h,1.27 % dose/g
same,"Tissue uptake, Uterus",2.0 h,0.76 % dose/g
same,tumor/blood quotient,1 h p.i.,5.3
same,"tumor/blood quotient, factor higher than for [^14C]5-glutamic acid",1 h p.i.,2
same,tumor/liver quotient,1 h p.i.,3.6
same,"tumor/liver quotient, factor higher than for [^14C]5-glutamic acid",1 h p.i.,4.6
same,tumor/blood quotient,2 h p.i.,7.9
same,"tumor/blood quotient, factor higher than for [^14C]5-glutamic acid",2 h p.i.,3.5
same,tumor/liver quotient,2 h p.i.,4.4
same,"tumor/liver quotient, factor higher than for [^14C]5-glutamic acid",2 h p.i.,5.5
same,tumor enrichment,"B16F1 melanoma, 1 h after intravenous administration",2.14 % ID/g
same,maximal tumor enrichment,"B16 melanoma, after intravenous injection (15 min)",3.55 % ID/g
